Results from patent publication US20100056596A1, “RESISTANCE-REPELLENT RETROVIRAL PROTEASE INHIBITORS” (Sequoia Pharmaceuticals, priority 2004, published 2010).

Columns and labels:
wild type HIV-1 protease = target: T1, wild type HIV-1 protease (Human immunodeficiency virus type 1 group M subtype B, UniProt P04585); experiment: Ki against wild type (WT) HIV-1 protease; type: biochemical; details: wild type HIV-1 protease
T1 construct: over 45 of the 99 amino acids of the HIV protease monomer

HIV-1 protease Mutant 8 = HIV-1 protease Mutant 8 (Human immunodeficiency virus type 1, UniProt P04585); experiment: Ki against HIV-1 protease Mutant 8; type: biochemical; details: HIV-1 protease Mutant 8
HIV-1 protease Mutant 9 = HIV-1 protease Mutant 9 (Human immunodeficiency virus type 1, UniProt P04585); experiment: Ki against HIV-1 protease Mutant 9; type: biochemical; details: HIV-1 protease Mutant 9
HIV-1 isolates, WT = experiment: In vitro drug sensitivity of HIV-1 laboratory isolates, WT; type: cell-based; details: Human immunodeficiency virus 1; HIV-1 isolate WT
Protocol: (§1) In Vitro Drug Sensitivity of HIV-1 Laboratory Isolates to PIs
(§2) The sensitivities of HIV-1 isolates against compounds of the invention were determined as previously described with minor modifications (Shiraska et al., Proc. Natl. Acad. Sci. USA, 92, 2398-2402 (1995)).

HIV-1 isolates, Mutant 8 = experiment: In vitro drug sensitivity of HIV-1 laboratory isolates, Mutant 8; type: cell-based; details: Human immunodeficiency virus 1, read-out: IC50 Mutant 8
Protocol: as §1, §2

HIV-1 isolates, Mutant 9 = experiment: In vitro drug sensitivity of HIV-1 laboratory isolates, Mutant 9; type: cell-based; details: Human immunodeficiency virus 1, read-out: IC50 Mutant 9
Protocol: as §1, §2

| SMILES | Ki (wild type HIV-1 protease) [nM] | Ki (HIV-1 protease Mutant 8) [nM] | Ki (HIV-1 protease Mutant 9) [nM] | IC50 (HIV-1 isolates, WT) [nM] | IC50 (HIV-1 isolates, Mutant 8) [nM] | IC50 (HIV-1 isolates, Mutant 9) [nM] |
| --- | --- | --- | --- | --- | --- | --- |
| CC(C)CN(CC(O)C(Cc1ccccc1)NC(=O)OC1COC2OCCC12)S(=O)(=O)c1ccc2onc(CSCC(F)(F)F)c2c1 (stereo not drawn) [Compound 233] | < 0.1 | < 0.3 | 3.4 | 4 | 36 | > 400 |
| CC(C)CN(CC(O)C(Cc1ccccc1)NC(=O)OC1COC2OCCC12)S(=O)(=O)c1ccc2onc(CNC(=O)C(F)(F)F)c2c1 (stereo not drawn) [Compound 234] | < 0.1 | < 0.3 | 0.36 | 16 | 23 | 85 |
| CC(C)CN(CC(O)C(Cc1ccccc1)NC(=O)OC1COC2OCCC12)S(=O)(=O)c1ccc2onc(CNC3CCCC3)c2c1 (stereo not drawn) [Compound 235] | < 0.1 | < 0.3 | 0.43 | 4.2 | 15 | 120 |
| CC(C)CN(CC(O)C(Cc1ccccc1)NC(=O)OC1COC2OCCC12)S(=O)(=O)c1ccc2onc(CNCCNC(=O)OC(C)(C)C)c2c1 (stereo not drawn) [Compound 236] | < 0.1 | < 0.3 | 0.34 | 6 | 18 | 160 |
| CC(C)CN(CC(O)C(Cc1ccccc1)NC(=O)OC1COC2OCCC12)S(=O)(=O)c1ccc2onc(CNCCCN3CCCC3=O)c2c1 (stereo not drawn) [Compound 237] | < 0.1 | < 0.3 | 0.27 | 31 | 41 | 85 |
| CC(C)CN(CC(O)C(Cc1ccccc1)NC(=O)OC1COC2OCCC12)S(=O)(=O)c1ccc2onc(CNCC3CCCCC3)c2c1 (stereo not drawn) [Compound 238] | < 0.1 | < 0.3 | < 0.1 | 7.5 | 35 | 55 |
| CC(C)CN(CC(O)C(Cc1ccccc1)NC(=O)OC1COC2OCCC12)S(=O)(=O)c1ccc2onc(CN3CCOCC3)c2c1 (stereo not drawn) [Compound 239] | < 0.1 | < 0.3 | 3.7 | 3 | 25 | > 400 |
| CC(C)CN(CC(O)C(Cc1ccccc1)NC(=O)OC1COC2OCCC12)S(=O)(=O)c1ccc2onc(CNC(=O)c3ccco3)c2c1 (stereo not drawn) [Compound 240] | < 0.1 | < 0.3 | 0.26 | 6.5 | 11 | 20 |
| CC(C)CN(CC(O)C(Cc1ccccc1)NC(=O)OC1COC2OCCC12)S(=O)(=O)c1ccc2onc(CNCc3ccccn3)c2c1 (stereo not drawn) [Compound 241] | 0.1 | < 0.3 | 0.16 | 8 | 17 | 27 |
| Cc1nc(CNCc2noc3ccc(S(=O)(=O)N(CC(C)C)CC(O)C(Cc4ccccc4)NC(=O)OC4COC5OCCC45)cc23)cs1 (stereo not drawn) [Compound 242] | < 0.1 | < 0.3 | 0.22 | 7 | 15 | 27 |
| CC(C)CN(CC(O)C(Cc1ccccc1)NC(=O)OC1COC2OCCC12)S(=O)(=O)c1ccc2onc(CS(C)(=O)=O)c2c1 (stereo not drawn) [Compound 243] | < 0.1 | < 0.3 | 0.96 | 8.2 | 24 | 120 |
| COCc1noc2ccc(S(=O)(=O)N(CC(C)C)CC(O)C(Cc3ccccc3)NC(=O)OC3COC4OCCC34)cc12 (stereo not drawn) [Compound 244] | < 0.1 | < 0.3 | 0.49 | 4.1 | 40 | 305 |
| CC(C)CN(CC(O)C(Cc1ccccc1)NC(=O)OC1COC2OCCC12)S(=O)(=O)c1ccc2onc(CNC(=O)C(F)(F)C(F)(F)F)c2c1 (stereo not drawn) [Compound 245] | < 0.1 | < 0.3 | 0.63 | 8.4 | 30 | 190 |
| CC(C)CN(CC(O)C(Cc1ccccc1)NC(=O)OC1COC2OCCC12)S(=O)(=O)c1ccc2onc(COCC(F)(F)F)c2c1 (stereo not drawn) [Compound 246] | < 0.1 | < 0.3 | 1.1 | 2.7 | 6.8 | 105 |
| CC(=O)N(Cc1noc2ccc(S(=O)(=O)N(CC(C)C)CC(O)C(Cc3ccccc3)NC(=O)OC3COC4OCCC34)cc12)CC(F)(F)F (stereo not drawn) [Compound 247] | < 0.1 | < 0.3 | 1.1 | 5.4 | 29 | > 400 |
| CC(C)CN(CC(O)C(Cc1ccccc1)NC(=O)OC1COC2OCCC12)S(=O)(=O)c1ccc2onc(CNCc3ccc4occc4c3)c2c1 (stereo not drawn) [Compound 248] | < 0.1 | < 0.3 | 0.33 | 7.9 | 24 | 54 |
